# According to EP0652009A1, “Identification and use of protease inhibitors” (ELI LILLY AND COMPANY, priority 1993, dated 1995):
# Non-standard residues stand in square brackets, D forms with d. Residues, ends and D or L forms follow the SMILES beside them. Sta = CC(C)C[C@H](N)[C@@H](O)CC(=O)O; N(iPr)Gly = CC(C)NCC(=O)O
# Biological target: Cathepsin D (Homo sapiens, UniProt P07339)
# Experiment: Assay 3: cathepsin D inhibition activity (non-cellular assay, chromogenic substrate)
# Format: biochemical
# Parameters: Frozen human placental tissue was thawed and homogenized; from tissue; host or cells: human placenta
# Details: 4 µM test compound; inhibition of initial rate relative to control; cathepsin D from human placental tissue
# Protocol: A third non-cellular assay for determining in vitro aspartyl protease inhibitory activity is generally described in Jupp, R.A. et al., (1990) Biochem. J., 265:871-878 and Rao et al., J. Med. Chem. (1993), in press. The assay is carried out by incubating a test compound with a suitable aspartyl protease, such as cathepsin D, in the presence of a chromogenic substrate. The inhibition constant, Ki, value may then be determined by quantifying the competitive inhibition of the hydrolysis of the chromogenic substrate. A variety of chromogenic substrates that are useful for assaying aspartyl protease activity are discussed in Dunn, et al., (1986) Biochem. J., 237:899-906. A preferred chromogenic substrate for a cathepsin D assay is disclosed in Scarborough, P.E. et al., Protein Science, (1993), 2:264-276.
# Concentrations of substrate solutions and cleavage products may be verified using amino acid analysis. The enzyme preparations may be titrated with a tightly binding inhibitor to quantitate the active concentration of the enzyme. Enzyme concentrations are typically in the range of from 1-6 nM. Stock solutions of the test compound are prepared at concentrations ranging from 1.0 to 5.0 mg/mL, and then 50-100 µL portions of these stock solutions may be further diluted to a concentration in the range of 5 to 300 µM for rate determinations.
# […] Then, the test compounds are assayed over a concentration range of, for example, 5 to 300 µM for rate determinations.
# A decrease in absorbance in the range of 284-324 nm may be monitored using a spectrophotometer. Absorbance readings are typically taken at various timepoints. The initial velocities are then plotted versus the initial substrate concentration. […] Estimates of Ki may then be determined using the Dixon construction. Dixon, M., (1953) Biochem J., 55:170-171.
# If the ratio of the total active enzyme concentration to the estimated Ki value ([E]t/Ki) is less than 0.2, then the precise Ki value may be computed by using a non-linear curve fitting program based on the equation: v= Vmax [S]/[S] + Km (1 + [I]/Ki ) [formula] where v is the initial rate, [S] is the initial substrate concentration, [I] is the inhibitor concentration and Km and Ki are defined above. […] P.J.F., (1972) Biochem J., 127:321-333. This Assay is exemplfied in Assay 3.
# The homogenate was centrifuged at 10,000 rpm for 30 minutes in a Sorvall GSA rotor. The supernatant was adjusted to pH 3.7 using 5.7N HCl and then sodium acetate was added to a concentration of 0.1M. The resultant mixture was incubated for 30 minutes at 0°C, resulting in the formation of a precipitate. This precipitate was removed by centrifugation (30 minutes, 10,000 rpm). The acidic supernatent was applied to a chromatography column (pepstatinyl agarose equilibrated with 0.1M sodium acetate, pH 3.5, 0.1% Brij 35, and 1M NaCl), washed until the OD₂₈₀ of the effluent returned to baseline, and then eluted with 50mM Tris-HCl, pH 8.6, 0.1% Brij 35, and 1M NaCl. The eluent was dialyzed against 10mM sodium phosphate, pH 7.0, 0.1% Brij 35, and 0.1M NaCl, and then applied to a 1 mL DEAE-Sephacel column equilibrated with the same buffer. Cathepsin D was recovered in the breakthrough fraction.
# The enzyme mixture (125 µL buffer (0.1M sodium formate at pH 3.7), 1 µL of a 1mM solution of test compound, 4 µL of DMSO, enzyme and water to provide a total volume of 230 µL) was vortexed and prewarmed for four minutes before the addition of the chromogenic substrate. After warming, the enzyme mixture was added to 20 µL of a […] dilution of substrate solution. A control reaction mixture was similarly prepared without the addition of the test compound. The percent of inhibition of the initial rate of reaction in the presence of a particular concentration of test compound (i.e. 4 µM) may be determined for the test compound by monitoring the reaction mixture in parallel to the control reaction. […]
# Cathepsin D, sequence (P07339 169-412 limits assumed): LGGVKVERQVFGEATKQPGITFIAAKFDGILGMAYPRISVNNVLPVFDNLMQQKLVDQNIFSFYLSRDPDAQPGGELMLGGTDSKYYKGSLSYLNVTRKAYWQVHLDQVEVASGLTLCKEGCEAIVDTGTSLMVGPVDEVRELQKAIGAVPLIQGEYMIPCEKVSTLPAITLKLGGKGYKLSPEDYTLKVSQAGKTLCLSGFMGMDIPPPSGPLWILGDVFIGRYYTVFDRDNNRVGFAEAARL
# Cathepsin D, sequence (P07339 65-162 limits assumed): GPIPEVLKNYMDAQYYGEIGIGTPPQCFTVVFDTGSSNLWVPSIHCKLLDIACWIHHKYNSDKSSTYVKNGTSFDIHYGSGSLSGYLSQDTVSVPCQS
row,% inhibition at 4µ M,Structure (SMILES)
1,28%,"Cc1ccc(C(=O)C2NCCc3ccccc32)cc1C(=O)N[C@@H](Cc1ccccc1)[C@H](O)CN1C[C@H]2CCCC[C@H]2C[C@H]1C(=O)NC(C)(C)C (relative stereo) [Example 30, [3S-(3R*,4aR*,8aR*,2'S*,3'R*)]-2-[2'-Hydroxy-3'-phenylmethyl-4'-aza-5'-oxo-5'-(3''-[1''',2''',3''',4'''-tetrahydroisoquinolin-1'''-ylcarbonyl]-6''-methyl)phenyl]pentyl-decahydroisoquinoline-3-N-t-butylcarboxamide]"

# Same assay, conditions: cathepsin D from human placental tissue, chromogenic substrate, pH 3.7, 37°C
row,Structure (SMILES),Ki
1,"Cc1cccc2ccc(C(=O)N[C@@H](CC(N)=O)C(=O)N[C@@H](Cc3ccccc3)[C@H](O)Cc3ccccc3C(=O)NC(C)(C)C)nc12 [Example 9, [1S-(1R*,4R*,5S*)]-N-(1-(2-Amino-2-oxoethyl)-2-oxo-3-aza-4-phenylmethyl-5-hydroxy-6-(2-(1-t-butylamino-1-oxomethyl)phenyl)hexyl)-8-methylquinolin-2-yl carboxamide]",820 nM
2,"CC(C)C(NC(=O)C(Cc1cccc2ccccc12)NC(=O)OC(C)(C)C)C(=O)NC(Cc1ccccc1)C(O)Cc1ccccc1C(=O)NC(C)(C)C (stereo not drawn) [Example 23, [2R-(2R*,3S*,6S*,9S*)]-N-t-Butyl-2-[2-hydroxy-3-phenylmethyl-4,7-diaza-5,8-dioxo-6-(1-methylethyl)-9-N(t-butoxycarbonyl)amino-10-naphth-1-yl]decyl benzamide]",73 nM
3,"CC(C)C(NC(=O)C(Cc1cccc2ccccc12)NC(=O)OC(C)(C)C)C(=O)NC(Cc1ccccc1)C(O)Cc1ccccc1C(=O)NC(C)(C)C (stereo not drawn) [Example 24, [2R-(2R*,3S*,6S*,9R*)]-N-t-Butyl-2-[2-hydroxy-3-phenylmethyl-4,7-diaza-5,8-dioxo-6-(1-methylethyl)-9-N(t-butoxycarbonyl)amino-10-naphth-1-yl]decyl benzamide]",42 nM

# Biological target: T1, Human brain cathepsin D (Homo sapiens, UniProt P07339)
# T1 construct: Human brain cathepsin D was purified from frozen post-mortem cortex; from tissue; host or cells: human post-mortem brain cortex
# Experiment: Assay 1: cathepsin D inhibition activity (non-cellular assay, porcine renin tetradecapeptide substrate, RP-HPLC)
# Format: biochemical
# Details: purified human brain cathepsin D, pH 4.5, 44 µM porcine renin tetradecapeptide, 37°C
# Protocol: An example of a non-cellular assay that may be used to determine in vitro aspartyl protease inhibitory activity reacts partially purified human brain cathepsin D with a substrate, e.g., porcine renin tetradecapeptide. The resultant reaction mixture is divided into portions and each portion is incubated for a different period of time. After the reaction is stopped, the turnover of substrate in each portion is determined using reverse-phase HPLC. Protease inhibition activity may be calculated based on the rates of substrate turnover. This assay is exemplified in Assay 1, below. Human brain cathepsin D was purified from frozen post-mortem cortex substantially in accordance with the method of Nixon and Morotta, (1984) J. Neurochem. 43:507-516. The cortex material was prepared and applied to a DEAE-Sepharose® column. The flow through fraction was dialyzed against 50mM Tris-HCl, pH 7.5, and applied to concanavalin A Sepharose® and eluted with 50mM Tris, pH 7.5, 0.5M methyl α-D-mannopyranoside. The eluted cathepsin D activity was dialyzed against 25mM Tris, pH 7.5, and stored at -40°C (Con A pool) until use. For each assay, 50 μL of the Con A pool was diluted to 270 μL in 200mM sodium citrate, pH 4.5, 150mM sodium chloride (NaCl), and incubated for 10 minutes at 4°C with 15 μL of compound stock diluted in dimethylsulfoxide (DMSO). The substrate, porcine renin tetradecapeptide ([…] [SEQ ID NO:3], Bachem Bioscience, Inc., Philadelphia, PA), was added to each reaction mixture to yield a final concentration of 44 μM in a total volume of 300 μL. The samples were incubated at 37°C for 0, 10, 20, or 30 minutes, and then boiled for 5 minutes to stop the reaction. The samples were centrifuged in a microcentrifuge for 10 minutes at 14,000 rpm at 4°C. After centrifugation, 200 μL of each reaction was injected onto […] column (Vydac, Hesperia, CA) with a Perkin Elmer ISS 100 autosampler and eluted with a gradient eluent of 0-50% CH3CN in 0.1% CF3CO2H at 2 mL/min. Peptide product peaks were monitored at 220nm with a Perkin Elmer LC 95 detector and integrated with Rainin Dynamax software in order to quantitate activity.
# T1 sequence (P07339 65-412): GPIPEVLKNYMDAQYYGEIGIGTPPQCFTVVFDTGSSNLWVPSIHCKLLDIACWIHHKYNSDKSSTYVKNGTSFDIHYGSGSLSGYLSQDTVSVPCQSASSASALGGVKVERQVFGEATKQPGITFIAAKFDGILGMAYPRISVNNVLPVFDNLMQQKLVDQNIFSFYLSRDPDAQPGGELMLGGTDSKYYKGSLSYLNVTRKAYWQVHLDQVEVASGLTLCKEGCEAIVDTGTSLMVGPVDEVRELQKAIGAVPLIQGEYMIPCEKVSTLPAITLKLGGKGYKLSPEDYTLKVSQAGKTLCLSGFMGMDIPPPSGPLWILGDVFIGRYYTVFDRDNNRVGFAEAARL
row,IC50,Structure (SMILES)
1,4 nM,"CC(=O)NCC(=O)N[C@H](C(=O)N[C@H](C(=O)N[C@@H](CC(C)C)[C@@H](O)CC(=O)N[C@@H](C)C(=O)N[C@H](C(=O)O)[C@@H](C)O)C(C)C)C(C)C [Example 41, CH3C(O)-Gly-Val-Val-Sta-Ala-Thr-OH] (Ac-GVV[Sta]AT-OH)"
2,8 nM,"CC(C)C[C@H](NC(=O)[C@@H](NC(=O)[C@@H](NC(=O)CNC(C)C)C(C)C)C(C)C)[C@@H](O)CC(=O)N[C@@H](C)C(=O)N[C@H](C(=O)O)[C@@H](C)O [Example 42, (CH3)2CH-Gly-Val-Val-Sta-Ala-Thr-OH] (H-[N(iPr)Gly]VV[Sta]AT-OH)"
3,53 nM,"CC(C)C[C@H](NC(=O)[C@@H](NC(=O)[C@@H](NC(=O)CN)C(C)C)C(C)C)[C@@H](O)CC(=O)N[C@@H](C)C(=O)N[C@H](C(=O)O)[C@@H](C)O [Example 43, Gly-Val-Val-Sta-Ala-Thr-OH] (H-GVV[Sta]AT-OH)"
4,> 250 nM,"CC(C)C[C@H](NC(=O)[C@@H](NC(=O)CN)C(C)C)[C@@H](O)CC(=O)N[C@@H](C)C(=O)N[C@H](C(=O)O)[C@@H](C)O [Example 45, Gly-Val-Sta-Ala-Thr-OH] (H-GV[Sta]AT-OH)"
5,> 250 nM,"CC[C@H](C)[C@H](NC(=O)C[C@H](O)[C@H](CC(C)C)NC(=O)[C@@H](NC(=O)CNC(C)C)C(C)C)C(=O)N[C@@H](C)C(=O)N[C@H](C(=O)O)[C@@H](C)O [Example 48, (CH3)2CH-Gly-Val-Sta-Ile-Ala-Thr-OH] (H-[N(iPr)Gly]V[Sta]IAT-OH)"
